Source: US10919764B2, “Multi-chamber hypochlorous acid dispenser” (WIAB WATER […], priority 2016, dated 2021)

Tested on: spores
Settings: acid used for protonization of HOCl
Description: In addition to buffering the product during storage and after application, acetic acid also has the advantage of improving the sporicidal effect by 40% compared to other acids used for protonization of HOCl.

For `CC(=O)O` [acetic acid], the “improvement of the sporicidal effect compared to other acids used for protonization of HOCl” value was 40%.
